Test results reported in PMC7940574 (Angewandte Chemie (International ed. in English), 2021).

Test system: A549 cells
Assay: Flow cytometry annexin V / propidium iodide in A549 cells
Assay type: cell-based, human
Settings: 15 μM gefitinib

In the case of COc1cc2ncnc(Nc3ccc(F)c(Cl)c3)c2cc1OCCCN1CCOCC1 [gefitinib], the “mode of cytotoxicity (annexin V vs propidium iodide)” value is reported as “early apoptosis”.
